Patent US10703764B2, “Benzopiperazine compositions as BET bromodomain inhibitors” (FORMA Therapeutics, Inc., priority 2013, dated 2020)

Experiments:
BRD4 BD1 = molecular target: T1, BRD4 BD1 (Homo sapiens, UniProt O60885); assay: AlphaScreen binding assay, BRD4 Bromodomain 1
T1 construct: made in house
Outline: (§1)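 An AlphaScreen competition format was used with His-BRD4 BD1 or BD2 and biotin-H4 K5/8/12/16-acetyl peptide, each at matched final levels of 50 nM (BD1) or 100 nM (BD2). Incubation in HEPES/NaCl buffer with 0.1% BSA and 0.01% Triton X-100 ran ≥1 h before IC50 determination.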

BRD4 BD2 = molecular target: T2, BRD4 BD2 (Homo sapiens, UniProt O60885); assay: AlphaScreen binding assay, BRD4 Bromodomain 2
T2 construct: made in house
Outline: as §1

MV4-11 cells = assay: Oncology cell growth assay (3-day proliferation, CellTiter-Glo); type: cell-based; details: Homo sapiens, MV4-11, 72 h, AML cell line MV4-11, 72 hours, compounds grouped by IC50 range, read-out: MV4-11 IC50 (inhibition of proliferation, gIC50)
Outline: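 72 h, 37° C, 5% CO2; MV4-11, 3000 cells/well, RPMI 1640 + 10% FBS. Compound final 10, 3.3, 1.1, 0.37, 0.12, 0.041, 0.013, 0.0045 μM. Readout CellTiter-Glo luminescence; gIC50 by 4-parameter logistic fit, normalised to DMSO and no-cell background.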

| IC50 (BRD4 BD1) | IC50 (BRD4 BD2) | IC50 (MV4-11 cells) | Compound |
| --- | --- | --- | --- |
| 100 to 1000 nM | < 50 nM | 100 to 500 nM | CC(=O)N1c2ccc(-c3cnn(C4COC4)c3)cc2N(c2nn(C)c3ccccc23)C[C@@H]1C [Example I-53, (S)-1-(2-methyl-4-(1-methyl-1H-indazol-3-yl)-6-(1-(oxetan-3-yl)-1H-pyrazol-4-yl)-3,4-dihydroquinoxalin-1(2H)-yl)ethanone] |
| 100 to 1000 nM | 50 to 500 nM | > 500 nM | CC(=O)N1c2ccc(-c3cnn(C4COC4)c3)cc2N(C(=O)OC2COC2)C[C@@H]1C [Example I-59, (S)-oxetan-3-yl 4-acetyl-3-methyl-7-(1-(oxetan-3-yl)-1H-pyrazol-4-yl)-3,4-dihydroquinoxaline-1(2H)-carboxylate] |
| 100 to 1000 nM | 50 to 500 nM | 100 to 500 nM | CC(=O)N1c2ccc(-c3cnn(C4COC4)c3)cc2N(C(=O)OCC2CCC2)C[C@@H]1C [Example I-60, (S)-cyclobutylmethyl 4-acetyl-3-methyl-7-(1-(oxetan-3-yl)-1H-pyrazol-4-yl)-3,4-dihydroquinoxaline-1(2H)-carboxylate] |
| 100 to 1000 nM | 50 to 500 nM | 100 to 500 nM | CC(=O)N1c2ccc(-c3cnn(C4COC4)c3)cc2N(C(=O)OCC(Cl)Cl)C[C@@H]1C [Example I-62, (S)-2,2-dichloroethyl 4-acetyl-3-methyl-7-(1-(oxetan-3-yl)-1H-pyrazol-4-yl)-3,4-dihydroquinoxaline-1(2H)-carboxylate] |
| < 100 nM | < 50 nM | 100 to 500 nM | CC(=O)N1c2ccc(-c3cnn(C4COC4)c3)cc2N(C(=O)OCC2(F)COC2)C[C@@H]1C [Example I-66, (S)-(3-fluorooxetan-3-yl)methyl 4-acetyl-3-methyl-7-(1-(oxetan-3-yl)-1H-pyrazol-4-yl)-3,4-dihydroquinoxaline-1(2H)-carboxylate] |

The next lines start with the compound.

| Compound | IC50 (BRD4 BD1) | IC50 (BRD4 BD2) | IC50 (MV4-11 cells) |
| --- | --- | --- | --- |
| CC(=O)N1c2ccc(-c3cnn(C4CC4)c3)cc2N(c2nn(C)c3cc(F)ccc23)C[C@@H]1C [Example I-54, (S)-1-(6-(1-cyclopropyl-1H-pyrazol-4-yl)-4-(6-fluoro-1-methyl-1H-indazol-3-yl)-2-methyl-3,4-dihydroquinoxalin-1(2H)-yl)ethanone] | 100 to 1000 nM | 50 to 500 nM | < 100 nM |
| CC(=O)N1c2ccc(-c3cnn(C4CC4)c3)cc2N(c2nn(C)c3ccc(F)cc23)C[C@@H]1C [Example I-55, (S)-1-(6-(1-cyclopropyl-1H-pyrazol-4-yl)-4-(5-fluoro-1-methyl-1H-indazol-3-yl)-2-methyl-3,4-dihydroquinoxalin-1(2H)-yl)ethanone] | 100 to 1000 nM | < 50 nM | 100 to 500 nM |
| CC(=O)N1c2ccc(-c3cnn(C4COC4)c3)cc2N(C(=O)OC2CC(F)(F)C2)C[C@@H]1C [Example I-65, (S)-3,3-difluorocyclobutyl 4-acetyl-3-methyl-7-(1-(oxetan-3-yl)-1H-pyrazol-4-yl)-3,4-dihydroquinoxaline-1(2H)-carboxylate] | < 100 nM | < 50 nM | 100 to 500 nM |
| CC(=O)N1c2ccc(-c3cnn(C4COC4)c3)cc2N(C(=O)OCCC(F)(F)F)C[C@@H]1C [Example I-69, (S)-3,3,3-trifluoropropyl 4-acetyl-3-methyl-7-(1-(oxetan-3-yl)-1H-pyrazol-4-yl)-3,4-dihydroquinoxaline-1(2H)-carboxylate] | < 100 nM | < 50 nM | 100 to 500 nM |
| CC(=O)N1c2ccc(-c3cnn(C4COC4)c3)cc2N(C(=O)OCC(F)(F)F)C[C@@H]1C [Example I-71, (S)-2,2,2-trifluoroethyl 4-acetyl-3-methyl-7-(1-(oxetan-3-yl)-1H-pyrazol-4-yl)-3,4-dihydroquinoxaline-1(2H)-carboxylate] | < 100 nM | < 50 nM | 100 to 500 nM |
| CC(=O)N1c2ccc(-c3cnn(C4COC4)c3)cc2N(C(=O)OC(CF)CF)C[C@@H]1C [Example I-72, (S)-1,3-difluoropropan-2-yl 4-acetyl-3-methyl-7-(1-(oxetan-3-yl)-1H-pyrazol-4-yl)-3,4-dihydroquinoxaline-1(2H)-carboxylate] | 100 to 1000 nM | < 50 nM | 100 to 500 nM |
